Test results published in ChEMBL document CHEMBL6153079, “Discovery of noncovalent diaminopyrimidine-based Inhibitors for glioblastoma via a dual FAK/DNA targeting strategy” (Eur J Med Chem, 2025).
Activity calls are given as the source filed them. The calls are words filed in the database; no cut-off is given here.

Legend:
Focal adhesion kinase 1 [1] = target: T1, Focal adhesion kinase 1 (Homo sapiens, UniProt Q05397); assay: Inhibition of FAK (unknown origin) at 50 nM relative to control
Target sequence in this assay (Q05397 2-1052 limits assumed): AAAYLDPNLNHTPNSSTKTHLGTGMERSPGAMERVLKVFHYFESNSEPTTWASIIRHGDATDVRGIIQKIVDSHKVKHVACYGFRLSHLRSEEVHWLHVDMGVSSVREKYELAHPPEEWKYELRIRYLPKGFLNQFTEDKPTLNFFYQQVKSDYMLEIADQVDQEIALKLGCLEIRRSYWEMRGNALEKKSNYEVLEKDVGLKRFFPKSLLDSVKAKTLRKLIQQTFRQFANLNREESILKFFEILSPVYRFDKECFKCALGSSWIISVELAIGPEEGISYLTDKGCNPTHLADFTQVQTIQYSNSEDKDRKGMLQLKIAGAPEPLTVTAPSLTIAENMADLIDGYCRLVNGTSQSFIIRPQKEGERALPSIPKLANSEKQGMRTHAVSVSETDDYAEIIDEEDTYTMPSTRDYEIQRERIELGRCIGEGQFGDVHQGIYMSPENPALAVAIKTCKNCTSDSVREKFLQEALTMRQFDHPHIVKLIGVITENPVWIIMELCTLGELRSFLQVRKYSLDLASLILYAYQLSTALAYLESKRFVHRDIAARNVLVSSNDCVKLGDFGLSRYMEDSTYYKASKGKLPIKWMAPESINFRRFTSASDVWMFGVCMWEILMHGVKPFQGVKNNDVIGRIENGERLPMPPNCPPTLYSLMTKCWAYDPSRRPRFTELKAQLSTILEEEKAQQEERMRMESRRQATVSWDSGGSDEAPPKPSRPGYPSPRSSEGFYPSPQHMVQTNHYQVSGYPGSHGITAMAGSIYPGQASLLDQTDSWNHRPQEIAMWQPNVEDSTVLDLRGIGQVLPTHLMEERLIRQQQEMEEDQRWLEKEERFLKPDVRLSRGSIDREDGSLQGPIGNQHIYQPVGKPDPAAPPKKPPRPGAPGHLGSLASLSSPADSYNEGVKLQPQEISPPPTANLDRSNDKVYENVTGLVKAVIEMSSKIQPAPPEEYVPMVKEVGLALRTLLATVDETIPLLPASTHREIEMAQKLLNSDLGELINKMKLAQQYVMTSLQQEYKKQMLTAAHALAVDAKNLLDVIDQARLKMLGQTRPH

U-251 = assay: Antiproliferative activity against human U-251 assessed as cell viability incubated for 48 hrs by MTT assay; type: functional, cell-based; conditions: U-251, 48 h
U-87 MG [2] = assay: Antiproliferative activity against human U-87 MG assessed as cell viability incubated for 48 hrs by MTT assay; type: functional, cell-based, U-87MG ATCC
Focal adhesion kinase 1 [3] = target: T1, Focal adhesion kinase 1; assay: Inhibition of FAK (unknown origin) at 10 nM relative to control
Target sequence in this assay (Q05397 2-1052 limits assumed): as above

[4] = Distribution coefficient, logD of compound in n-Octanol/water at pH 7.4; type: physicochemical
[5] = Selectivity ratio of IC50 for cytotoxicity against human LO2 assessed as cell viability to IC50 for antiproliferative activity against human U-251 assessed as cell viability; type: toxicity; conditions: LO2 cells versus U-251 cells, read-out: Ratio IC50
Focal adhesion kinase 1 [6] = target: T1, Focal adhesion kinase 1; assay: Inhibition of FAK (unknown origin) preincubated for 10 mins followed by ATP and substrate addition and measured after 50 mins by HTRF analysis
Target sequence in this assay (Q05397 whole entry): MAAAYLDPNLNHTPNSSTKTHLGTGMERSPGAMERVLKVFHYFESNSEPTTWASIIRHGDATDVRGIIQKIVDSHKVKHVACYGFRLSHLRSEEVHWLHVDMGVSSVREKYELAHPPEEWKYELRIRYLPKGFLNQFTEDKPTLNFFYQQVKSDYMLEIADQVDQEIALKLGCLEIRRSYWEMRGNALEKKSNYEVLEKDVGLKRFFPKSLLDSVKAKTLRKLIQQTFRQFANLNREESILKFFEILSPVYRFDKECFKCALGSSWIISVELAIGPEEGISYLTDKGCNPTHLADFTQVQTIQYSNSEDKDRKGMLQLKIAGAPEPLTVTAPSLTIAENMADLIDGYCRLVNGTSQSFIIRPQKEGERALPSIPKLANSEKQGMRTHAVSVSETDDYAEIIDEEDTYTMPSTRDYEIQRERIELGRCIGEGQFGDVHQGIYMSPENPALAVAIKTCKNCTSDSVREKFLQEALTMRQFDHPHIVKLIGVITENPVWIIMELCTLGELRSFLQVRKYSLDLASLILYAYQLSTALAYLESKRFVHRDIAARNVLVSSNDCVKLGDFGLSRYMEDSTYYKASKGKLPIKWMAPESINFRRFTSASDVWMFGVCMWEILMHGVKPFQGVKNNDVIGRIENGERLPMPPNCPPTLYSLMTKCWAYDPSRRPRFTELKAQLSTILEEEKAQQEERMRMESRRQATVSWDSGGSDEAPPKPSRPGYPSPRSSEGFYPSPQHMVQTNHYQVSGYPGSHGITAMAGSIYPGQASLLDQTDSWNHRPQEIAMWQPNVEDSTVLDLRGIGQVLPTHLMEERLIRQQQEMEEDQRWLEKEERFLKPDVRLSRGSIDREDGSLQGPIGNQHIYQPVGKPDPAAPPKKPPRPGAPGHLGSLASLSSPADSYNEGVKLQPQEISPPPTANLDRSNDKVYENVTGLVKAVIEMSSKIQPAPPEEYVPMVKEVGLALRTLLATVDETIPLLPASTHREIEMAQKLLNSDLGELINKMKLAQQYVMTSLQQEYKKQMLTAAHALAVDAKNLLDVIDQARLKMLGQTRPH

[7] = Selectivity ratio of IC50 for cytotoxicity against human LO2 assessed as cell viability to IC50 for antiproliferative activity against human U-87 MG assessed as cell viability; type: toxicity; conditions: LO2 cells versus U-87 MG cells, read-out: Ratio IC50
[8] = Effective permeability of compound at pH 7.4 incubated for 16 hrs by LCMS analysis; type: ADME; conditions: pH 7.4, 16 h
[9] = Cytotoxicity against human LO2 assessed as cell viability incubated for 48 hrs by MTT assay; type: toxicity, cell-based, L02; conditions: LO2 cells
[10] = Cytotoxicity against human 2BS assessed as cell viability incubated for 48 hrs by MTT assay; type: toxicity, cell-based; conditions: 2BS cells
U-87 MG [11] = assay: Induction of DNA damage in human U-87 MG cells assessed as comet tail moment at 0.1 to 2 uM incubated for 2.5 to 3 hrs by comet assay; type: functional; conditions: U-87MG ATCC, time 2.5-3 hrs

SMILES	inhibition (Focal adhesion kinase 1 [1])	IC50 (U-251)	IC50 (U-87 MG [2])	inhibition (Focal adhesion kinase 1 [3])	logD [4]	selectivity ratio [5]	IC50 (Focal adhesion kinase 1 [6])	selectivity ratio [7]	Peff [8]	IC50 at 48 h [9]	IC50 at 48 h [10]	Activity (U-87 MG [11])
CNC(=O)c1ccccc1Nc1nc(Nc2ccc(C3CCN(C(=O)CCCc4ccc(N(CCCl)CCCl)cc4)CC3)cc2)ncc1Cl	67.5%	18200 nM	1400 nM	56.4%	–	–	–	–	–	–	–	–
O=C(O)CCCc1ccc(N(CCCl)CCCl)cc1 [CHLORAMBUCIL]	8.54%	> 50000 nM	> 50000 nM	2.77%	–	–	–	–	–	–	–	–
CNC(=O)c1ccccc1Nc1nc(Nc2ccc(N3CCN(CCOC(=O)c4ccc(N(CCCl)CCCl)cc4)CC3)cc2)ncc1C(F)(F)F	96.4%	31 nM	27 nM	81.3%	5.34	> 40	4.28 nM	> 40	0.001 10^-6 cm/s	1210 nM	24.1 µM	–
CNC(=O)c1ccccc1Nc1nc(Nc2ccc(N3CCN(CCOC(=O)CCCc4ccc(N(CCCl)CCCl)cc4)CC3)cc2)ncc1[N+](=O)[O-]	75.4%	849 nM	605 nM	36.5%	–	–	–	–	–	–	–	–
CNC(=O)c1ccccc1Nc1nc(Nc2ccc(N3CCN(CCO)CC3)cc2)ncc1Cl	77.9%	194 nM	62 nM	67.7%	–	–	–	–	–	–	–	–
CNC(=O)c1ccccc1Nc1nc(Nc2ccc(N3CCNCC3)cc2)ncc1Cl	78.6%	79 nM	36 nM	67.9%	–	–	–	–	–	–	–	–
CNC(=O)c1ccccc1Nc1nc(Nc2ccc(N3CCN(C(=O)CCCc4ccc(N(CCCl)CCCl)cc4)CC3)cc2)ncc1Cl	74.2%	3700 nM	990 nM	55.4%	–	–	–	–	–	–	–	–
CNC(=O)c1ccccc1Nc1nc(Nc2ccc(N3CCN(CCOC(=O)CCCc4ccc(N(CCCl)CCCl)cc4)CC3)cc2)ncc1Br	94.2%	81 nM	30 nM	68.4%	–	–	–	–	–	–	–	–
CNC(=O)c1ccccc1Nc1nc(Nc2ccc(N3CCN(CCOC(=O)CCCc4ccc(N(CCCl)CCCl)cc4)CC3)cc2)ncc1Cl	94.5%	485 nM	95 nM	79.8%	–	–	–	–	–	–	–	–
CNC(=O)c1ccccc1Nc1nc(Nc2ccc(N3CCN(C(=O)c4ccc(N(CCCl)CCCl)cc4)CC3)cc2)ncc1Cl	77.5%	6260 nM	1760 nM	55.8%	–	–	–	–	–	–	–	–
CNC(=O)c1ccccc1Nc1nc(Nc2ccc(N3CCN(C(=O)CCCc4ccc(N(CCCl)CCCl)cc4)CC3)cc2OC)ncc1Cl	67.3%	> 50000 nM	18000 nM	32.2%	–	–	–	–	–	–	–	–
CNC(=O)c1ccccc1Nc1nc(Nc2ccc(N3CCN(CCOC(=O)CCCc4ccc(N(CCCl)CCCl)cc4)CC3)cc2)ncc1C	97.5%	168 nM	42 nM	65.8%	–	–	–	–	–	–	–	–
CNC(=O)c1ccccc1Nc1nc(Nc2ccc(N3CCN(CCOC(=O)c4ccc(N(CCCl)CCCl)cc4)CC3)cc2)ncc1Cl	78.5%	1210 nM	390 nM	51.9%	–	–	–	–	–	–	–	–
CNC(=O)c1ccccc1Nc1nc(Nc2ccc(N3CCN(C)CC3)cc2)ncc1Cl	80.2%	64 nM	17 nM	76.4%	3.1	> 40	3.2 nM	> 40	–	801 nM	11.6 µM	inactive
CNC(=O)c1ccccc1Nc1nc(Nc2ccc(N3CCN(C(=O)c4ccc(N(CCCl)CCCl)cc4)CC3)cc2OC)ncc1Cl	64.6%	> 50000 nM	> 50000 nM	26.2%	–	–	–	–	–	–	–	–
CNC(=O)c1ccccc1Nc1nc(Nc2ccc(C3CCN(C(=O)c4ccc(N(CCCl)CCCl)cc4)CC3)cc2)ncc1Cl	58.6%	> 50000 nM	39600 nM	34%	–	–	–	–	–	–	–	–
